Assay results as given in the NIST ThermoML archive (doi:10.1021/acs.jced.7b00297).

Assay: mn = molality of the nth substance listed, in mol/kg
Settings: 84.5 kPa, Liquid; for speed of sound: Single path-length method; for mass density: Vibrating tube method

CCCCn1cc[n+](C)c1.O=S(=O)([O-])C(F)(F)F [1-butyl-3-methylimidazolium trifluoromethanesulfonate] + O
Settings	mass density, 288.15 K [kg/m3]	mass density, 298.15 K [kg/m3]	mass density, 308.15 K [kg/m3]	mass density, 318.15 K [kg/m3]	speed of sound, 288.15 K [m/s]	speed of sound, 298.15 K [m/s]	speed of sound, 308.15 K [m/s]	speed of sound, 318.15 K [m/s]
m1 = 0.0164	1000.27	998.176	995.134	991.289	1468.7	1498.5	1521.1	1537.4
m1 = 0.0259	1000.93	998.823	995.765	991.906	1469.8	1499.4	1521.8	1537.9
m1 = 0.042	1002.06	999.922	996.836	992.952	1471.8	1501	1523	1538.8
m1 = 0.0699	1003.99	1001.79	998.662	994.732	1475	1503.5	1524.8	1540
m1 = 0.1072	1006.54	1004.28	1001.08	997.093	1479.2	1506.6	1527.2	1541.7
m1 = 0.1455	1009.12	1006.78	1003.52	999.47	1483.8	1510.2	1529.8	1543.6
m1 = 0.3021	1019.31	1016.66	1013.11	1008.81	1499.6	1522.1	1538.4	1549.2
m1 = 0.4645	1029.21	1026.22	1022.39	1017.83	1513.4	1532.3	1545.4	1553.4
m1 = 0.6651	1040.6	1037.21	1033.03	1028.16	1526.7	1541.5	1551.1	1556.2
m1 = 0.8671	1051.21	1047.44	1042.94	1037.8	1535.6	1546.9	1553.8	1556.5

CCCCCCn1cc[n+](C)c1.[Cl-] [1-hexyl-3-methylimidazolium chloride] + O
Settings	mass density, 288.15 K [kg/m3]	mass density, 298.15 K [kg/m3]	mass density, 308.15 K [kg/m3]	mass density, 318.15 K [kg/m3]	speed of sound, 288.15 K [m/s]	speed of sound, 298.15 K [m/s]	speed of sound, 308.15 K [m/s]	speed of sound, 318.15 K [m/s]
m1 = 0.0096	999.203	997.128	994.101	990.268	1468.2	1498.2	1521.1	1537.6
m1 = 0.0296	999.412	997.304	994.252	990.4	1471.7	1501.3	1523.7	1539.8
m1 = 0.0585	999.713	997.562	994.471	990.58	1476.8	1505.7	1527.4	1543
m1 = 0.0734	999.867	997.692	994.583	990.681	1479.4	1507.9	1529.3	1544.6
m1 = 0.0999	1000.15	997.932	994.787	990.859	1483.9	1511.7	1532.6	1547.3
m1 = 0.1212	1000.37	998.125	994.95	990.996	1487.4	1514.8	1535.2	1549.6
m1 = 0.1542	1000.73	998.421	995.204	991.215	1493	1519.5	1539.2	1553
m1 = 0.2244	1001.47	999.058	995.748	991.681	1504	1528.9	1547.3	1559.8
m1 = 0.2863	1002.12	999.62	996.227	992.089	1513.8	1537.3	1554.3	1565.8
m1 = 0.469	1004.08	1001.27	997.628	993.281	1540.2	1559.7	1573.2	1581.6
m1 = 0.8901	1008.38	1004.89	1000.7	995.899	1591.4	1602.4	1608.7	1610.9
